{"source": "paper PMC12591484", "about": "(PLOS One, 2025)", "key": {"[1]": {"biological_target": "T1, α1β3L231Cγ2L GABAA receptors (Homo sapiens, UniProt P14867+P18507+P28472, L256C)", "T1 construct": "expressed in transfected cells; host or cells: Xenopus oocytes injected with capped mRNA, 1α:1β:5γ", "T1 sequence (P28472 26-473 L256C, one chain of several)": "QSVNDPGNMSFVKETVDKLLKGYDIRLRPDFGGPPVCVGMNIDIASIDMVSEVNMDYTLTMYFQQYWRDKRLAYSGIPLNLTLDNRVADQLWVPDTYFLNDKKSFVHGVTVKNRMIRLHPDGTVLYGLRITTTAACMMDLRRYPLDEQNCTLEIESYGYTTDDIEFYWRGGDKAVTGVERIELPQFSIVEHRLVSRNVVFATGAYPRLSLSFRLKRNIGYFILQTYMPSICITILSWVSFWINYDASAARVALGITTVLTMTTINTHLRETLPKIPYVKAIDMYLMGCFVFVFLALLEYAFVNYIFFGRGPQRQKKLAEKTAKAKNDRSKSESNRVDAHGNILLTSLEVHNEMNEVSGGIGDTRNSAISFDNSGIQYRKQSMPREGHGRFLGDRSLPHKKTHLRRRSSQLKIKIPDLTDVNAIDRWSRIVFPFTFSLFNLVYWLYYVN", "T1 sequence (P18507 40-475, one chain of several)": "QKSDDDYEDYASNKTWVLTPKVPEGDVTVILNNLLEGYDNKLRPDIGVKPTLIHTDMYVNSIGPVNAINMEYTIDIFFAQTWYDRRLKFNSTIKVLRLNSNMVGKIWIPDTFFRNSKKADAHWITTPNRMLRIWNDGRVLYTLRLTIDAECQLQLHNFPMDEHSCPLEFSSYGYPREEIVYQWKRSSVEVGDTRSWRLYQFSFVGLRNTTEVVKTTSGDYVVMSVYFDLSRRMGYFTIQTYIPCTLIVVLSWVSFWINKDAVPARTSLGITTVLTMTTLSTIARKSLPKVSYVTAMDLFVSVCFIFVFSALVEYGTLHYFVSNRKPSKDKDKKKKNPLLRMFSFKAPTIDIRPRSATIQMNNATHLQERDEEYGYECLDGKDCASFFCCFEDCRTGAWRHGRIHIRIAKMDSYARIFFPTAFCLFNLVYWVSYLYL", "test": "Drug protection from pCMBS modification (SCAMP)", "format": "cell-based", "design": "key: +: SCAMP is Substituted Cysteine Modification and Protection and is positive when adding anesthetic to cysteine modifier significantly reduces persistent post-exposure effects due to covalent modification; -: Negative results are indicated by “–“ symbols", "settings": "results of this study (*); some cells also cite [9]", "protocol": "(§1) Experiments were performed in ND-96 buffer at room temperature (20–22°C). Oocytes were placed in a low-volume (30µl) flow chamber and impaled with borosilicate microelectrodes filled with 3M KCl (resistance 0.5–3 MΩ) and voltage-clamped at −50 mV (model OC-725C; Warner Instruments, Hamden, CT, USA). Superfusate solutions in ND-96 were delivered at 2 ml/min from glass syringe reservoirs via computer-controlled valves (VC-8; Warner Instruments), a micro-manifold (ALA-VM8; ALA Scientific Instruments, Farmingdale, NY, USA), and PTFE tubing. Currents were digitized at 200 Hz on a computer running ClampEx v8.0 software (Molecular Devices, San Jose, CA, USA). Digitized traces were filtered with a 10-Hz low-pass Bessel function, leak corrected and analyzed for peak amplitude off-line using Clampfit v8 software (Molecular Devices).\n(§2) Drug protection from pCMBS modification was assessed under pCMBS exposure conditions that produced approximately half of the maximal modification ratio for each mutant receptor, and a least a value of 3. This approach balanced the magnitude of functional modification signals (smaller with less pCMBS exposure) against the challenge of using a reversibly bound ligand to competitively block an irreversible covalent cysteine-modifying reaction. […] Each oocyte was used in a single SCAMP experiment. […] Etomidate was used as a positive control for anesthetic protection in α1M236C and β3M286C mutants and as a negative control in α1S270C, α1A291C, β3L231C, γ2S301C, γ2I242C, and γ2L246C mutants. R-mTFD-MPAB was used as a positive control in α1S270C, α1A291C, β3L231C, and γ2LS301C mutants and as a negative control in α1M236C and β3M286C mutants. For each cysteine mutant and protective drug combination, five oocytes were studied.\n(§3) Non-linear least squares fits and statistical analyses were performed in Prism 10.4.0. (GraphPad Software, San Diego, CA, USA). […] Protection (steric inhibition of pCMBS modification) was inferred when anesthetics produced significant reductions in modification ratios relative to control (no anesthetic) values. The statistical significance threshold was p < 0.05."}, "[2]": {"biological_target": "T2, α1M236Cβ3γ2L GABAA receptors (Homo sapiens, UniProt P14867+P18507+P28472, M263C)", "T2 construct": "expressed in transfected cells; host or cells: Xenopus oocytes injected with capped mRNA, 1α:1β:5γ", "T2 sequence (P14867 28-456 M263C, one chain of several)": "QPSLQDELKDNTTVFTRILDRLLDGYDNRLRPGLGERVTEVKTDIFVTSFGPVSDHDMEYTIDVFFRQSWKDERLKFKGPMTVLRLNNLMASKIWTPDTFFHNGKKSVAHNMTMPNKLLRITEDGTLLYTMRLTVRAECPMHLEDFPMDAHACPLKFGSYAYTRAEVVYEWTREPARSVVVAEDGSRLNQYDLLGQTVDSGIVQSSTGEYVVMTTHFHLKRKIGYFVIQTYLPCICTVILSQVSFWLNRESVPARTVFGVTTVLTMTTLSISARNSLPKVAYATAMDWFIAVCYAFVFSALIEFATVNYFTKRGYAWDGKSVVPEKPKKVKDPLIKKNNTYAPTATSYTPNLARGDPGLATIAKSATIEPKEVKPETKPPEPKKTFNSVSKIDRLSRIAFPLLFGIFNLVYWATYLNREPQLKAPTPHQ", "T2 sequence (P18507 40-475, one chain of several)": "as the sequence (P18507 40-475, one chain of several) above", "test": "Drug protection from pCMBS modification (SCAMP)", "format": "cell-based", "design": "key: +: Mutant-function studies are deemed positive when bulky mutations (mostly tryptophans) at the site significantly reduce positive modulation by anesthetics; -: Negative results are indicated by “–“ symbols", "settings": "results of this study (*); some cells also cite [9]", "protocol": "as §1, §2, §3"}, "[3]": {"system": "α1β3γ2L GABAA receptors, bulky mutation at α1L232", "design": "key: +: Mutant-function studies are deemed positive when bulky mutations (mostly tryptophans) at the site significantly reduce positive modulation by anesthetics; -: Negative results are indicated by “–“ symbols", "settings": "cited from earlier work"}, "[4]": {"biological_target": "T3, α1β3γ2S301C GABAA receptors (Homo sapiens, UniProt P14867+P18507+P28472, S340C)", "T3 construct": "expressed in transfected cells; host or cells: Xenopus oocytes injected with capped mRNAs mixed 1α:1β:5γ", "T3 sequence (P14867 28-456)": "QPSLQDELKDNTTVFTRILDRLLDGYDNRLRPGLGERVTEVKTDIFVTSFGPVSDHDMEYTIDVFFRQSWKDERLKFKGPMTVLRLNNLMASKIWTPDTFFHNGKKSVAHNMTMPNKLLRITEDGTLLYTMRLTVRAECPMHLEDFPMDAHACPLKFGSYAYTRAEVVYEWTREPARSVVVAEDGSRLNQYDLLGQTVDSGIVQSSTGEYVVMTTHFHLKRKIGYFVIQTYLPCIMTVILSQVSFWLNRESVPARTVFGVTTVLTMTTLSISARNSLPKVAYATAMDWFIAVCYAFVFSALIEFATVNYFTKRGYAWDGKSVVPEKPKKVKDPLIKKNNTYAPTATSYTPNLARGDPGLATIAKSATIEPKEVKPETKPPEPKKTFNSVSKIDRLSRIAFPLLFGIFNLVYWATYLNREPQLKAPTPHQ", "T3 sequence (P28472 26-473)": "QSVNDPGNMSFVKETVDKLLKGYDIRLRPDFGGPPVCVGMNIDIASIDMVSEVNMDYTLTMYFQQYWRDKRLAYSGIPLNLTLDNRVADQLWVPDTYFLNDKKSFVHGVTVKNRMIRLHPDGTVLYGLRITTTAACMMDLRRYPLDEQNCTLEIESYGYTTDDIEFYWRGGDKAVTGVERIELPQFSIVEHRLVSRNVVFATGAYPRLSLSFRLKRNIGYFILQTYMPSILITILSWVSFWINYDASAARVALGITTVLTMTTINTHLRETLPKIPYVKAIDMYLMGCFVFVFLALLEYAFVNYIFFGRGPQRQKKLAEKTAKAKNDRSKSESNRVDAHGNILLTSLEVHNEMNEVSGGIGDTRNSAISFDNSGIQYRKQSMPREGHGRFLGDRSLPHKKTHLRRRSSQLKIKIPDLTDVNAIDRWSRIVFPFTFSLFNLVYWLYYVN", "T3 sequence (P18507 40-475 S340C)": "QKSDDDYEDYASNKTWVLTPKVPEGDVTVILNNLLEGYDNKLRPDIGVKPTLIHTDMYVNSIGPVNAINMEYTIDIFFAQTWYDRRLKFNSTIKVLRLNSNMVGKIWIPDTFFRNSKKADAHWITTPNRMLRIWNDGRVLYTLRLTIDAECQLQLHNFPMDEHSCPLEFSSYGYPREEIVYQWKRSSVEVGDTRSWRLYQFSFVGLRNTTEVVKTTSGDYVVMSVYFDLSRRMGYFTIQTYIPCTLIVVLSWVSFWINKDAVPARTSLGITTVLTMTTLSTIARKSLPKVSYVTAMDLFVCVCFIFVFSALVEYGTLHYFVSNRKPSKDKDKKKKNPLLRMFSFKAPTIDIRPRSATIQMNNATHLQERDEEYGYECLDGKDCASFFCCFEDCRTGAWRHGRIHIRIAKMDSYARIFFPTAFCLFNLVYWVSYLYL", "test": "Drug protection from pCMBS modification (SCAMP)", "format": "cell-based", "design": "key: +: Mutant-function studies are deemed positive when bulky mutations (mostly tryptophans) at the site significantly reduce positive modulation by anesthetics; -: Negative results are indicated by “–“ symbols", "settings": "results of this study (*)", "protocol": "as §1, §2, §3"}}}
{"smiles": "C=CCC1(c2cccc(C3(C(F)(F)F)N=N3)c2)C(=O)NC(=O)N(C)C1=O", "note": "(centres unmarked) [R-mTFD-MPAB, R-5-allyl-1-methyl-5-(m-trifluoromethyl-diazirynylphenyl) barbituric acid]", "values": [{"measurement": "SCAMP result, β3– (M1) L231", "setting": "[1]", "result": "+^[9], *"}, {"measurement": "SCAMP result, α1– (M1) M236", "setting": "[2]", "result": "-^[9], *"}, {"measurement": "Mutant-function result, α1– (M1) L232", "setting": "[3]", "result": "-^[9]"}]}
{"smiles": "CCOC(=O)c1cncn1[C@H](C)c1ccccc1", "note": "[etomidate, R-etomidate]", "values": [{"measurement": "SCAMP result, γ2+ (M2, M3) S301", "setting": "[4]", "result": "-*"}, {"measurement": "Mutant-function result, α1– (M1) L232", "setting": "[3]", "result": "+^[9, 12]"}]}
{"smiles": "CC(C)c1cc(C2(C(F)(F)F)N=N2)cc(C(C)C)c1CO", "note": "[pTFD-di-iPr-BnOH]", "values": [{"measurement": "SCAMP result, β3– (M1) L231", "setting": "[1]", "result": "+*"}, {"measurement": "SCAMP result, γ2+ (M2, M3) S301", "setting": "[4]", "result": "-*"}, {"measurement": "SCAMP result, α1– (M1) M236", "setting": "[2]", "result": "-*"}]}
